# In patent publication US20100029657A1, “Bridged, Bicyclic Heterocyclic or Spiro Bicyclic Heterocyclic Derivatives of Pyrazolo[1, 5-A]Pyrimidines, Methods for Preparation and Uses Thereof” (Wyeth, priority 2008, published 2010):
# Structures can show the parent of a compound that is named as a salt.
# Biological target: T1, Flag/GST-tagged recombinant human B-Raf (Homo sapiens, UniProt P15056)
# T1 construct: Flag; GST; made in house; host or cells: Sf9 insect cells (B-Raf); E. coli (MEK1-GST)
# Assay: B-Raf kinase assay (phosphorylation of GST-MEK1, phospho-MEK1 antibody/Europium detection)
# Format: biochemical
# Details: B-Raf IC50 Data for compounds of Formula A; read-out: Mean IC50
# How it was run: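 Active B-Raf (0.2 nM) phosphorylates GST-MEK1 in 20 mM MOPS pH 7.2 buffer with DTT, vanadate and 0.01% Triton X-100. The Mg/ATP cocktail (200 μM ATP, 40 mM MgCl2) is added, then incubation runs 45 min at RT. Product is captured on anti-GST plates and detected by anti-phospho-MEK1 plus Europium-anti-rabbit fluorescence, giving % inhibition per concentration.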
# T1 sequence (P15056 whole entry): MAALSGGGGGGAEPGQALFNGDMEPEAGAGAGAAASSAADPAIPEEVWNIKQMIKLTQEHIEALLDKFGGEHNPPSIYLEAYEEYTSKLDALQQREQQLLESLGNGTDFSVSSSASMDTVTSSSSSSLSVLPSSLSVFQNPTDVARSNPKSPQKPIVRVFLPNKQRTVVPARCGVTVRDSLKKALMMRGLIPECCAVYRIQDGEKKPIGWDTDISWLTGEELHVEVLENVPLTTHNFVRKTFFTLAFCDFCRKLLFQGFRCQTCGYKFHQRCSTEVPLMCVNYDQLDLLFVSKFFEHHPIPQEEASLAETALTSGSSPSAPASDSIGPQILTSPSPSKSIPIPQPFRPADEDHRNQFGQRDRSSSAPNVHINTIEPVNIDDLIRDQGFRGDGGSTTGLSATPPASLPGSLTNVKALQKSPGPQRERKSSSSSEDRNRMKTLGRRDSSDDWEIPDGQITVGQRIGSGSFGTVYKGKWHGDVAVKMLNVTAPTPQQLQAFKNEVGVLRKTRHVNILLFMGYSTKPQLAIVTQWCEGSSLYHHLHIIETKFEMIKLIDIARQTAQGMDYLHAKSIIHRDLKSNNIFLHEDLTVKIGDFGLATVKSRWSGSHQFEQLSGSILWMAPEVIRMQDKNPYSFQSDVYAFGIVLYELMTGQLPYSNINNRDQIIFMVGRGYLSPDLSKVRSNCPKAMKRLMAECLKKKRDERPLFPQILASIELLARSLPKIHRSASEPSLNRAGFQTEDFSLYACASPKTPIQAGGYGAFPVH
row,IC50,SMILES
1,< 0.0003 µM,"CCN1C[C@@H]2C[C@H]1CN2c1cc(F)c(-c2ccnc3c(-c4cccc5[nH]ncc45)c(-c4ccncc4)nn23)c(F)c1 [Example 167, 7-{4-[(1S,4S)-5-ethyl-2,5-diazabicyclo[2.2.1]hept-2-yl]-2,6-difluorophenyl}-3-(1H-indazol-4-yl)-2-pyridin-4-ylpyrazolo[1,5-a]pyrimidine]"
2,< 0.0003 µM,"Clc1cc(N2C[C@@H]3C[C@H]2CN3)ccc1-c1ccnc2c(-c3cccc4[nH]ncc34)c(-c3ccncc3)nn12 [Example 61, 7-(4-((1S,4S)-2,5-Diazabicyclo[2.2.1]heptan-2-yl)-2-chlorophenyl)-3-(1H-indazol-4-yl)-2-(pyridin-4-yl)pyrazolo[1,5-a]pyrimidine]"
3,0.302 µM,"CCOC(=O)N1C2CCC1CC(c1ccnc3c(-c4cccc(F)c4F)c(-c4ccncc4)nn13)C2 (stereo not shown) [Example 65, Ethyl 3-(3-(2,3-difluorophenyl)-2-(pyridin-4-yl)pyrazolo[1,5-a]pyrimidin-7-yl)-8-azabicyclo[3.2.1]octane-8-carboxylate]"
4,< 0.0003 µM,"Cc1cc(N2C[C@@H]3C[C@H]2CN3)ccc1-c1ccnc2c(-c3ccc(F)c4[nH]ncc34)c(-c3ccncc3)nn12 [Example 135, 7-{4-[(1S,4S)-2,5-diazabicyclo[2.2.1]hept-2-yl]-2-methylphenyl}-3-(7-fluoro-1H-indazol-4-yl)-2-pyridin-4-ylpyrazolo[1,5-a]pyrimidine]"
5,0.0004 µM,"CN1C[C@@H]2C[C@H]1CN2c1c(F)c(F)c(-c2ccnc3c(-c4cccc5[nH]ncc45)c(-c4ccncc4)nn23)c(F)c1F [Example 174, 3-(1H-indazol-4-yl)-2-pyridin-4-yl-7-{2,3,5,6-tetrafluoro-4-[(1S,4S)-5-methyl-2,5-diazabicyclo[2.2.1]hept-2-yl]phenyl}pyrazolo[1,5-a]pyrimidine]"
6,0.0376 µM,"c1cc(-c2ccnc3c(-c4cccc5[nH]ncc45)c(-c4ccncc4)nn23)cc(N2C[C@@H]3C[C@H]2CN3)c1 [Example 124, 7-{3-[(1S,4S)-2,5-diazabicyclo[2.2.1]hept-2-yl]phenyl}-3-(1H-indazol-4-yl)-2-pyridin-4-ylpyrazolo[1,5-a]pyrimidine]"
7,< 0.0003 µM,"Fc1ccc(-c2c(-c3ccncc3)nn3c(-c4ccc(N5C[C@@H]6C[C@H]5CN6)cc4Cl)ccnc23)c2cn[nH]c12 [Example 184, 7-{2-chloro-4-[(1S,4S)-2,5-diazabicyclo[2.2.1]hept-2-yl]phenyl}-3-(7-fluoro-1H-indazol-4-yl)-2-pyridin-4-ylpyrazolo[1,5-a]pyrimidine]"
8,0.0064 µM,"c1cc(-c2c(-c3ccncc3)nn3c2nccc3[C@H]2CC[C@@H](N3CC4CCC(C3)O4)CC2)c2cn[nH]c2c1 (relative stereo) [Example 152, 3-(1H-indazol-4-yl)-7-[cis-4-(8-oxa-3-azabicyclo[3.2.1]oct-3-yl)cyclohexyl]-2-pyridin-4-ylpyrazolo[1,5-a]pyrimidine]"
9,> 0.1 µM,"CC(C)(C)OC(=O)N1C[C@@H]2C[C@H]1CN2Cc1cccc(-c2ccnc3c(-c4cccc5[nH]ncc45)c(-c4ccncc4)nn23)c1 [Example 202, tert-butyl (1S,4S)-5-{3-[3-(1H-indazol-4-yl)-2-pyridin-4-ylpyrazolo[1,5-a]pyrimidin-7-yl]benzyl}-2,5-diazabicyclo[2.2.1]heptane-2-carboxylate]"
10,< 0.0003 µM,"Cc1cc(N2C[C@@H]3C[C@H]2CN3C)ccc1-c1ccnc2c(-c3ccc(F)c(O)c3)c(-c3ccncc3)nn12 [Example 56, 2-Fluoro-5-(7-(2-methyl-4-((1S,4S)-5-methyl-2,5-diazabicyclo[2.2.1]heptan-2-yl)phenyl)-2-(pyridin-4-yl)pyrazolo[1,5-a]pyrimidin-3-yl)phenol]"
11,0.001 µM,"CC(C)(C)OC(=O)N1C[C@@H]2C[C@H]1CN2c1ccc(-c2ccnc3c(-c4ccc(F)c5[nH]ncc45)c(-c4ccncc4)nn23)c(Cl)c1 [Example 175, tert-butyl (1S,4S)-5-{3-chloro-4-[3-(7-fluoro-1H-indazol-4-yl)-2-pyridin-4-ylpyrazolo[1,5-a]pyrimidin-7-yl]phenyl}-2,5-diazabicyclo[2.2.1]heptane-2-carboxylate]"
12,0.00035 µM,"Fc1cc(CN2C[C@@H]3C[C@H]2CN3)ccc1-c1ccnc2c(-c3cccc4[nH]ncc34)c(-c3ccncc3)nn12 [Example 205, 7-{4-[(1S,4S)-2,5-diazabicyclo[2.2.1]hept-2-ylmethyl]-2-fluorophenyl}-3-(1H-indazol-4-yl)-2-pyridin-4-ylpyrazolo[1,5-a]pyrimidine]"
13,0.0399 µM,"c1cc(-c2c(-c3ccncc3)nn3c2nccc3[C@H]2CC[C@@H](N3C4CCC3COC4)CC2)c2cn[nH]c2c1 (relative stereo) [Example 150, 3-(1H-indazol-4-yl)-7-[cis-4-(3-oxa-8-azabicyclo[3.2.1]oct-8-yl)cyclohexyl]-2-pyridin-4-ylpyrazolo[1,5-a]pyrimidine]"
14,0.0006 µM,"c1cc(-c2c(-c3ccncc3)nn3c(-c4ccc(N5C[C@@H]6CC[C@H]5CN6)cc4)ccnc23)c2cn[nH]c2c1 [Example 144, 7-{4-[(1S,4S)-2,5-diazabicyclo[2.2.2]oct-2-yl]phenyl}-3-(1H-indazol-4-yl)-2-pyridin-4-ylpyrazolo[1,5-a]pyrimidine]"
15,0.0023 µM,"CN1C[C@@H]2C[C@H]1CN2c1ccc(-c2ccnc3c(-c4ccc(Cl)c5[nH]ncc45)c(-c4ccncc4)nn23)cc1 [Example 141, 3-(7-chloro-1H-indazol-4-yl)-7-{4-[(1S,4S)-5-methyl-2,5-diazabicyclo[2.2.1]hept-2-yl]phenyl}-2-pyridin-4-ylpyrazolo[1,5-a]pyrimidine]"
16,0.001 µM,"CN1C2CCC1CN(c1ccc(-c3ccnc4c(-c5cccc(O)c5)c(-c5ccncc5)nn34)cc1)C2 [Example 25, 3-{7-[4-(8-Methyl-3,8-diaza-bicyclo[3.2.1]oct-3-yl)-phenyl]-2-pyridin-4-yl-pyrazolo[1,5-a]pyrimidin-3-yl}-phenol]"
17,0.0005 µM,"Fc1cc(CN2C[C@H]3C[C@@H]2CO3)ccc1-c1ccnc2c(-c3cccc4[nH]ncc34)c(-c3ccncc3)nn12 [Example 207, 7-{2-fluoro-4-[(1R,4R)-2-oxa-5-azabicyclo[2.2.1]hept-5-ylmethyl]phenyl}-3-(1H-indazol-4-yl)-2-pyridin-4-ylpyrazolo[1,5-a]pyrimidine]"
18,0.0016 µM,"CC(C)(C)OC(=O)N1C[C@@H]2C[C@H]1CN2c1cc(F)c(-c2ccnc3c(-c4cccc5[nH]ncc45)c(-c4ccncc4)nn23)c(F)c1 [Example 99, tert-butyl(1S,4S)-5-{3,5-difluoro-4-[3-(1H-indazol-4-yl)-2-pyridin-4-ylpyrazolo[1,5-a]pyrimidin-7-yl]phenyl}-2,5-diazabicyclo[2.2.1]heptane-2-carboxylate]"
19,0.0028 µM,"N#CCN1C2CCC1CC(c1ccnc3c(-c4cccc5[nH]ncc45)c(-c4ccncc4)nn13)C2 (stereo not shown) [Example 117, {3-[3-(1H-indazol-4-yl)-2-pyridin-4-ylpyrazolo[1,5-a]pyrimidin-7-yl]-8-azabicyclo[3.2.1]oct-8-yl}acetonitrile]"
20,< 0.0003 µM,"Oc1cccc(-c2c(-c3ccncc3)nn3c(-c4ccc(N5C[C@@H]6C[C@H]5CN6)cc4F)ccnc23)c1 [Example 133, 3-(7-{4-[(1S,4S)-2,5-diazabicyclo[2.2.1]hept-2-yl]-2-fluorophenyl}-2-pyridin-4-ylpyrazolo[1,5-a]pyrimidin-3-yl)phenol]"

row,SMILES,IC50
1,"CN(C)C(=O)N1C2CCC1CC(c1ccnc3c(-c4cccc5[nH]ncc45)c(-c4ccncc4)nn13)C2 (stereo not shown) [Example 120, 3-[3-(1H-indazol-4-yl)-2-pyridin-4-ylpyrazolo[1,5-a]pyrimidin-7-yl]-N,N-dimethyl-8-azabicyclo[3.2.1]octane-8-carboxamide]",0.0064 µM
2,"CCN1C2CCC1CC(c1ccnc3c(-c4ccc(F)c(O)c4)c(-c4ccncc4)nn13)C2 (stereo not shown) [Example 64, 5-(7-(8-Ethyl-8-azabicyclo[3.2.1]octan-3-yl)-2-(pyridin-4-yl)pyrazolo[1,5-a]pyrimidin-3-yl)-2-fluorophenol]",0.003 µM
3,"Oc1cccc(-c2c(-c3ccncc3)nn3c(C4CC5CCC(C4)N5)ccnc23)c1 (stereo not shown) [Example 9, 3-(7-(8-Azabicyclo[3.2.1]octan-3-yl)-2-(pyridin-4-yl)pyrazolo[1,5-a]pyrimidin-3-yl)phenol]",0.004 µM
4,"CCOC(=O)N1C2CCC1CC(c1ccnc3c(-c4ccc(C)c5[nH]ncc45)c(-c4ccncc4)nn13)C2 (stereo not shown) [Example 78, Ethyl 3-[3-(7-Methyl-1H-indazol-4-yl)-2-pyridin-4-ylpyrazolo[1,5-a]pyrimidin-7-yl]-8-azabicyclo[3.2.1]octane-8-carboxylate, trifuoroacetate salt]",0.0007 µM
5,"CCN1C2CCC1CC(c1ccnc3c(-c4ccc(C)c5[nH]ncc45)c(-c4ccncc4)nn13)C2 (stereo not shown) [Example 77, 7-(8-ethyl-8-azabicyclo[3.2.1]oct-3-yl)-3-(7-methyl-1H-indazol-4-yl)-2-pyridin-4-ylpyrazolo[1,5-a]pyrimidine, trifluoroacetate salt]",0.017 µM
6,"COc1cccc(-c2c(-c3ccncc3)nn3c(C4CC5CCC(C4)N5)ccnc23)c1 (stereo not shown) [Example 19, 7-(8-Azabicyclo[3.2.1]oct-3-yl)-3-(3-methoxyphenyl)-2-pyridin-4-ylpyrazolo[1,5-a]pyrimidine]",0.071 µM
7,"CC(=O)N1C2CCC1CC(c1ccnc3c(-c4ccc(Cl)c(O)c4)c(-c4ccncc4)nn13)C2 (stereo not shown) [Example 13, 5-[7-(8-Acetyl-8-azabicyclo[3.2.1]oct-3-yl)-2-pyridin-4-ylpyrazolo[1,5-a]pyrimidin-3-yl]-2-chlorophenol]",0.0003 µM

# Same assay, conditions: Mean IC50 (uM), B-Raf IC50 Data for compounds of Formula A
row,IC50,SMILES
1,0.0003 µM,"CCOC(=O)N1C2CCC1CC(c1ccnc3c(-c4ccc(Cl)c5[nH]ncc45)c(-c4ccncc4)nn13)C2 (stereo not shown) [Example 75, Ethyl 3-[3-(7-chloro-1H-indazol-4-yl)-2-pyridin-4-ylpyrazolo[1,5-a]pyrimidin-7-yl]-8-azabicyclo[3.2.1]octane-8-carboxylate]"
